Measurements published in patent US9546162B2, “Compounds and methods for skin repair” (Allergan, Inc., priority 2013, dated 2017).
Read-outs that look alike come from different tables or passages of the source.

What was measured:
EP4 [1] = molecular target: T1, EP4 (Homo sapiens (Human), UniProt P35408); experiment: EP4 cAMP EC50; format: cell-based
EP4 [2] = molecular target: T1, EP4; experiment: EP4 radioligand binding (Ki), [3H]PGE2; conditions: EP4, HEK-293 membranes
Method: (§1) HEK-293 cells stably expressing the human or feline FP receptor, or EP1, EP2, or EP4 receptors were washed with TME buffer, scraped from the bottom of the flasks, and homogenized for 30 sec using a Brinkman PT 10/35 polytron. TME buffer was added to achieve a final 40 ml volume in the centrifuge tubes (the composition of TME is 100 mM TRIS base, 20 mM MgCl2, […]; 10N HCl is added to achieve a pH of 7.4).
(§2) The cell homogenate was centrifuged at 19000 r.p.m. for 20 min at 4° C. using a Beckman Ti-60 rotor. The resultant pellet was resuspended in TME buffer to give a final 1 mg/ml protein concentration, as determined by Biorad assay. Radioligand binding competition assays vs. [^3H-]17-phenyl PGF2a (5 nM) were performed in a 100 μl volume for 60 min. Binding reactions were started by adding plasma membrane fraction. The reaction was terminated by the addition of 4 ml ice-cold TRIS-HCl buffer and rapid filtration through glass fiber GF/B filters using a Brandel cell harvester. The filters were washed 3 times with ice-cold buffer and oven dried for one hour.
(§3) [^3H—] PGE2 (specific activity 180 Ci mmol) was used as the radioligand for EP receptors. [^3H] 17-phenyl PGF2a was employed for FP receptor binding studies. Binding studies employing EP1, EP2, EP4 and FP receptors were performed in duplicate in at least three separate experiments. A 200 μl assay volume was used. Incubations were for 60 min at 25° C. and were terminated by the addition of 4 ml of ice-cold 50 mM TRIS-HCl, followed by rapid filtration through Whatman GF/B filters and three additional 4 ml washes in a cell harvester (Brandel). Competition studies were performed using a final concentration of 5 nM [^3H]-PGE2, or 5 nM [^3H] 17-phenyl PGF2a and non-specific binding determined with 10^−5M of unlabeled PGE2, or 17-phenyl PGF2a, according to receptor subtype studied.

EP2 [3] = molecular target: T2, EP2 (Homo sapiens (Human), UniProt P43116); experiment: EP2 competition binding (Ki), [3H]PGE2; conditions: EP2, HEK 293 cells
T2 sequence (P43116 whole entry): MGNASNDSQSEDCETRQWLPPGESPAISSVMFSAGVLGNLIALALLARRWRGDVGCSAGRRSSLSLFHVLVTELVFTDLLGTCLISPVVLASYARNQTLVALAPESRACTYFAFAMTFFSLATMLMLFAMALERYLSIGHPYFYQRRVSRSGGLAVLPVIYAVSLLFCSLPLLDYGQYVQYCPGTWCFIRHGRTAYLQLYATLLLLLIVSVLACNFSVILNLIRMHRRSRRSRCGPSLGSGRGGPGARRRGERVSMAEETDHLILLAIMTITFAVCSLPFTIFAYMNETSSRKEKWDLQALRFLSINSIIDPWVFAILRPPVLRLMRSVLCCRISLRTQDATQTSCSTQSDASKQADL
Method: Competition binding experiments were performed in a medium containing Hank's balanced salt solution, Hepes 20 mM, pH 7.3, membranes (˜60 μg protein) or 2×10^5 cells from HEK 293 cells stably expressing human EP2 receptors, [^3H]PGE2 (10 nM) and various concentrations of test compounds in a total volume of 300 μl. Reaction mixtures were incubated at 23° C. for 60 min, and were filtered over Whatman GF/B filters under vacuum. Filters were washed three times with 5 ml ice-cold buffer containing 50 mM Tris/HCl (pH 7.3). Non-specific binding was estimated in the presence of excess unlabeled PGE2 (10 μM). Binding data fitted to the binding model for a single class of binding sites, using nonlinear regression analysis.
as §1, §2, §3

EP2 [4] = molecular target: T2, EP2; experiment: EP2 cAMP EC50; format: cell-based

T1 sequence (P35408 whole entry): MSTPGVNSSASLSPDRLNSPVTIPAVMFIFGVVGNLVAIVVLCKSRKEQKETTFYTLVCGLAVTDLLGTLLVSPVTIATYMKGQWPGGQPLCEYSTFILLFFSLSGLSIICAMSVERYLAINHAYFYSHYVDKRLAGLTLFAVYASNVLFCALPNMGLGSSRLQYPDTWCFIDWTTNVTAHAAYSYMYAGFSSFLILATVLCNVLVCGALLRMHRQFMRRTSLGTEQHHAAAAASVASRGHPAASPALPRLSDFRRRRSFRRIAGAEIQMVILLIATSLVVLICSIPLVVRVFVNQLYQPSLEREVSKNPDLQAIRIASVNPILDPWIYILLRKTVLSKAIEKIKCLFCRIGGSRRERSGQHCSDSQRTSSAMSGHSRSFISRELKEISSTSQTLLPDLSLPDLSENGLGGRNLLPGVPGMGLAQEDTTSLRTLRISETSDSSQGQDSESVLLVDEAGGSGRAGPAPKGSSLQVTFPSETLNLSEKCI

SMILES | EC50 (EP4 [1]) | EP4 Ki (EP4 [2]; read-out: EP4 Ki EC50) | Ki (EP2 [3]) | EC50 (EP2 [4]) | EP4 cAMP EC50 (EP4 [1]) | EP4 Ki (EP4 [2]) | EP2 Ki (EP2 [3])
COc1cc(/C=C2\CCc3cccc(CCc4ccc(C(=O)O)cc4)c32)cc(OC)c1 [Entry 2] | 7 nM | 42 nM | 95 nM | 28 nM | – | – | –
O=C(O)c1ccc(CCc2cccc3c2N(Cc2cc(OCc4ccccc4)cc(OCc4ccccc4)c2)CC3)cc1 [Entry 7] | – | 5850 nM | – | – | – | – | –
O=C(O)c1ccc(CCc2cccc3c2N(Cc2ccc4c(c2)OCO4)CC3)cc1 [Entry 8] | – | 453 nM | – | – | – | – | –
O=C(O)c1ccc(CCc2cccc3c2C(Cc2cc(Cl)cc(Cl)c2)=CC3)cc1 [Entry 10] | 23 nM | 56 nM | 18 nM | 2 nM | – | – | –
Cc1cc(C)cc(CC2=CCc3cccc(CCc4ccc(C(=O)O)cc4)c32)c1 [Entry 11] | 220 nM | 240 nM | 6 nM | 13 nM | – | – | –
COc1cc(CC2=CCc3c(F)ccc(CCc4ccc(C(=O)O)cc4)c32)cc(OC)c1 [Entry 12] | 41 nM | 52 nM | 83 nM | 25 nM | – | – | –
COc1cc(CC2CCc3cccc(OCc4ccc(C(=O)O)cc4)c32)cc(OC)c1 (stereo not shown) [Entry 13] | 16 nM | 154 nM | 469 nM | – | – | – | –
COc1cc(CN2CCc3cccc(CCc4ccc(C(=O)O)s4)c32)cc(OC)c1 [Entry 13] | – | 161 nM | 47 nM | – | – | – | –
COc1cc(/C=C2\CCc3cccc(OCc4ccc(C(=O)O)cc4)c32)cc(OC)c1 [Entry 14] | – | 1490 nM | – | – | > 10000 nM | – | > 10000 nM
COc1cc(CC2=CCc3ccc(OC)c(CCc4ccc(C(=O)O)cc4)c32)cc(OC)c1 [Entry 16] | – | 469 nM | 1700 nM | – | – | – | –
O=C(O)c1ccc(CCc2cccc3c2C(Cc2cc(C(F)(F)F)cc(C(F)(F)F)c2)=CC3)cc1 [Entry 17] | 296 nM | 736 nM | 8 nM | – | – | – | –
O=C(O)c1ccc(CCc2cccc3c2C(Cc2cc(F)cc(F)c2)=CC3)cc1 [Entry 18] | 57 nM | 134 nM | 27 nM | 6 nM | – | – | –
COc1cc(CC2=CCc3cc(F)cc(CCc4ccc(C(=O)O)cc4)c32)cc(OC)c1 [Entry 19] | 2 nM | 0.4 nM | 18 nM | 36 nM | – | – | –
COc1cc(OC)cc(S(=O)(=O)N2CCc3cccc(CCc4ccc(C(=O)O)cc4)c32)c1 [Entry 19] | – | 8230 nM | 776 nM | – | > 10000 nM | – | –
COc1cc(CC2=CCc3cccc(-c4cccc(/C=C/C(=O)O)c4)c32)cc(OC)c1 [Entry 20] | – | 1230 nM | – | – | – | – | > 10000 nM
COc1cc(CC2=CCc3cccc(/C=C/c4ccc(C(=O)O)cc4)c32)cc(OC)c1 [Entry 21] | – | 1200 nM | 4770 nM | – | > 10000 nM | – | –
COc1cc(CC2=CCc3cccc(-c4cccc(OCC(=O)O)c4)c32)cc(OC)c1 [Entry 22] | – | 1170 nM | – | – | – | – | > 10000 nM
COc1cc(CC2=CCc3cccc(-c4ccc(OCC(=O)O)cc4)c32)cc(OC)c1 [Entry 23] | – | 4470 nM | – | – | > 10000 nM | – | > 10000 nM
COc1cc(CC2=CCc3cccc(C#Cc4ccc(C(=O)O)cc4)c32)cc(OC)c1 [Entry 24] | – | 3600 nM | – | – | > 10000 nM | – | > 10000 nM

Second part, the compound after the results:

EC50 (EP4 [1]) | EP4 Ki (EP4 [2]; read-out: EP4 Ki EC50) | Ki (EP2 [3]) | EC50 (EP2 [4]) | EP4 cAMP EC50 (EP4 [1]) | EP4 Ki (EP4 [2]) | EP2 Ki (EP2 [3]) | SMILES
7.2 nM | 3 nM | 2 nM | – | – | – | – | COc1cc(CC2CCc3cccc(CCc4ccc(C(=O)O)cc4)c32)cc(OC)c1 (stereo not shown) [Entry 1]
43 nM | 90 nM | 116 nM | 130 nM | – | – | – | COc1cc(CC2=CCCc3cccc(CCc4ccc(C(=O)O)cc4)c32)cc(OC)c1 [Entry 3]
71 nM | 52 nM | 61 nM | – | – | – | – | COc1ccc(OC)c(CC2=CCc3cccc(CCc4ccc(C(=O)O)cc4)c32)c1 [Entry 4]
562 nM | 251 nM | 53 nM | – | – | – | – | COc1cccc(CC2=CCc3cccc(CCc4ccc(C(=O)O)cc4)c32)c1OC [Entry 6]
– | 174 nM | – | – | – | – | – | O=C(O)c1ccc(CCc2cccc3c2N(Cc2ccc4ccccc4c2)CC3)cc1 [Entry 6]
33 nM | 34 nM | 20 nM | 161 nM | – | – | – | COc1ccc(CC2=CCc3cccc(CCc4ccc(C(=O)O)cc4)c32)cc1OC [Entry 7]
107 nM | 71 nM | 67 nM | 57 nM | – | – | – | COc1ccccc1CC1=CCc2cccc(CCc3ccc(C(=O)O)cc3)c21 [Entry 8]
– | 453 nM | – | – | – | – | – | COc1cc(CN2CCCc3cccc(CCc4ccc(C(=O)O)cc4)c32)cc(OC)c1 [Entry 9]
93 nM | 195 nM | 27 nM | 114 nM | – | – | – | COc1ccc(CC2=CCc3cccc(CCc4ccc(C(=O)O)cc4)c32)cc1 [Entry 9]
– | – | – | – | > 10000 nM | > 10000 nM | – | COc1cccc(CCN2Cc3cccc(CCc4ccc(C(=O)O)cc4)c3C2)c1 [Entry 10]
– | – | – | – | > 10000 nM | – | – | COc1cccc(CN2Cc3cccc(CCc4ccc(C(=O)O)cc4)c3C2)c1 [Entry 11]
1 nM | 0.8 nM | 3 nM | 11 nM | – | – | – | COc1cc(CC2=CCc3cccc(CCc4ccc(C(=O)O)cc4)c32)cc(OC)c1 [Entry 15]
3130 nM | – | – | – | – | – | – | COc1cccc(Cn2ccc3cccc(CCc4ccc(C(=O)O)cc4)c32)c1 [Entry 15]
– | – | – | – | > 10000 nM | – | > 10000 nM | COc1cccc(CC(=O)N2CCc3cccc(CCc4ccc(C(=O)O)cc4)c32)c1 [Entry 17]
– | – | – | – | > 10000 nM | > 10000 nM | – | COc1cccc(S(=O)(=O)N2CCc3cccc(CCc4ccc(C(=O)O)cc4)c32)c1 [Entry 20]
